Entries after “also recorded” stand apart in the source; their conditions may differ.
Legend:
[1] = system: PKCβII mRNA; assay: RT-PCR of PKCβII mRNA in synchronized A10 cells; assay type: cell-based, rat; conditions: for effect of glucose analogs on PKCβII mRNA: 25 mM analog; for PERCENT OF PKCβII mRNA POST-GLUCOSE TREATMENT: inhibitor added 30 minutes prior to 25 mM glucose, 5.5 mM glucose control = 100%; for PERCENT OF PKCβII mRNA POST-GLUCOSE TREATMENT / effect of inhibitor on glucose-induced destabilization of PKCβII mRNA: synchronized A10 cells; for effect of inhibitor on glucose-induced destabilization of PKCβII mRNA: 30 minutes pre-incubation, then 25 mM glucose
Procedure: (§1) Reverse Transcriptase-Polymerase Chain Reaction. […] The upstream sense primer corresponded to the C4 kinase domain common to both PKCβI and PKCβII (5′ […] 3′) [SEQ ID NO:4] and the downstream antisense primer was specific for PKCβI (5′ […] 3′) [SEQ ID NO:5] (Chalfant et al., 1995, pp.13326-13332). These primers detect inclusion of the PKCβII exon in the mature mRNA as well as PKCβI mRNA. Sense and antisense primers for β-actin (#5402-3) were obtained from Clonetech. PCR was performed using ampliTaq Gold DNA polymerase from PERKIN ELMER (#N808-0240) on 10% of the reverse transcriptase reaction product. Following 35 cycles of amplification in a BIOMETRA Trioblock thermocycler (PKCβI and -βII: 95° C., 30 sec; 64° C., 2 min for 35 cycles; and for β-actin: 94° C., 1 min; 58° C., 1 min; and 72° C., 3 min for 35 cycles), 25% of the PCR reaction was resolved on a 1.2% agarose gel. Bands were observed under UV light and photographed.
Primers were designed for the upstream common kinase region (C4) (-sense primer) and the PKCβI exon (-antisense primer) for simultaneous amplification of both PKCβI and -βII messages by RT-PCR.

[2] = system: rat VSMC; conditions: cited from earlier work
[3] = system: PKCβ(I+II) mRNA; assay: In vitro RNA stability assay with post-nuclear extracts of A10 cells; parameters: species or system rat; conditions: 50 mM EDTA added to the reaction mix
Procedure: RNA stability assay. To prepare post-nuclear extracts (see, for example, Wager, R. E. and R. K. Assoian. 1990. A phorbol ester-regulated ribonuclease system controlling transforming growth factor BI gene expression in hematopoietic cells. Mol. Cell. Biol. 10:5983-5990), synchronized A1O cells, re-initiated to proliferate with DMEM+10% FBS were treated with either 5.5 mM or 25 mM glucose for 2 h to 24 h, then washed and collected in ice-cold 1× DPBS. The cellular pellet was re-suspended in extract buffer containing 0.01M Tris-HCl, 0.15M NaCl, 0.5% Nonidet P-40, leupeptin (10 μg/ml) and aprotonin (10 μg/ml) incubated on ice for 10 minutes and carefully layered over extract buffer containing 24% sucrose. Samples were centrifuged over a sucrose gradient at 1 0,000xg for 20 minutes at 4° C. Post-nuclear extract was separated, stored on ice and aliquots taken for protein concentration using Bradford protein assay (see Bradford, M. M. 1976. A rapid and sensitive method for the quantitation of microgram quantities of protein utilizing the principle of protein-dye bindingno title. Anal. Biochem. 72:248-254). Total RNA (10 μg) from A10 cells, was incubated with 2.7% (vol/vol) of the post-nuclear extracts for 30 minutes at 4° C. in 50 μl (final volume) of extract buffer. When specifically noted, 50 mM EDTA was added to the reactions as a control to inhibit nuclease activity. […]

[4] = system: PKCβI mRNA; assay: RT-PCR of PKCβI mRNA in synchronized A10 cells; assay type: cell-based, rat; conditions: 4 hours
Procedure: as §1
Thus, the PKCβII transcript contains the PKCβI exon with the poly A tail and a common 3′ untranslated region (FIG. 25). Inclusion of the alternatively spliced exon encodes a stop codon such that the PKCβI exon facilitates poly-adenylation but the exon is not translated, thereby generating PKCβII protein. […] Although, this assay is semi-quantitative, the ration of PKCβII to PKCβI mRNA was about 2 to 1.

[5] = biological target: PP2A; conditions: cited from earlier work
[6] = biological target: PP1; conditions: cited from earlier work
[7] = biological target: PP2B; conditions: cited from earlier work
[8] = system: IL-3 3′-UTR ARE transcript; conditions: cited from earlier work
[9] = system: PKCβ promoter; assay: PKCβ promoter-CAT deletion constructs transiently transfected into A10 cells; assay type: cell-based, rat; conditions: 100 nM TPA
Procedure: Calcium-phosphate transfections. For promoter studies, A10 cells were grown and synchronized in 6-well plates. Three hours prior to transfections, fresh medium (DMEM containing 10% fetal bovine serum) was substituted on A10 cells. pβG or pβG-PKCβII expression vectors were transfected with the calcium-phosphate-DNA precipitate. Following overnight incubation, calcium phosphate-DNA precipitate was washed off with 1× Dulbecco's phosphate buffered saline (DPBS) and replaced with fresh medium. For stably-transfected cell selection, 0.7 mg/ml G-418 was added to the media. It was changed every 4 days and 10-14 days later, the colonies were pooled and maintained in DMEM (10% FBS) with 0.2 mg/ml G-418.
Since PKCβ is a low copy gene, nuclear run-on assays were not a practical approach to examine transcriptional regulation. […] PKCβ promoter constructs with successive deletions of the 5′ region cloned in front of a promoterless chloramphenicol acetyltransferase (CAT) as the reporter gene were transiently transfected into A10 cells (FIG. 19). pSV-β-Galactosidase was co-transfected with the CAT constructs to normalize the efficiency of transfection. Simultaneous positive and negative controls were carried out as described previously.
Transcriptional repression of PKCβ promoter by transcription factors in response to high glucose was anticipated. […]

[10] = system: glucose-sensing element; assay: Specificity of the glucose-sensing element for hexoses
[11] = system: PKCβ(I+II) mRNA; assay: Northern blot of steady state PKCβ(I+II) mRNA in synchronized A10 cells; assay type: cell-based, rat; conditions: 25 mM mannitol osmotic control, 15-18 hours
Procedure: Cell culture. […] Cells were grown to >90% confluency and media was changed every 4 days. Cell synchronization was achieved by serum deprivation (0.5% FBS) for 48 hours (see, for example, Ross, R., C. Nist, B. Kariya, M. J. Rivest, E. Raines, and J. Callis. 1978. Physiological quiescence in plasma-derived serum: Influence of platelet derived growth factor on cell growth in culture. J. Cell. Physiol. 97:497-508).
Isolation of RNA and Northern Blot Analysis. Total cellular RNA was isolated from 100-mm plates using Tri-Reagent (Molecular Research Center, Inc.). […] Ethidium bromide was added in the loading buffer for visualization and quantitation of 18S and 28S RNA. After fractionation, the integrity and loading of RNA was assessed under UV light (23,24). […] Membranes were washed with high stringency conditions (1×SSC, 0.1% SDS for 15 minutes at 42° C. followed by 0.11× SSC, 0.1% SDS for 15 minutes at 42° C.), and quantitated using Molecular Dynamics Phosphoimaging System. In experiments, where mentioned, membranes were exposed to X-ray film and the autoradiograms were quantitated densitometrically.
Cells incubated with 25 mM mannitol were used as osmotic controls. Total RNA was extracted and the mRNA transcript levels were detected using a full length PKCβ cDNA probe which would cross-hybridize with both PKCβI and PKCβII mRNAs. […]

[12] = system: PKCβII mRNA; assay: RT-PCR of PKCβII mRNA in primary human aortic smooth muscle cells (AoSMC); assay type: cell-based; conditions: 4 hours; for effect on PKCβII mRNA: 100 nM insulin
Procedure: (§2) Cells were grown to >90% confluency and medium was changed every 5 days.
as §1

[13] = system: PKCβI mRNA; assay: RT-PCR of PKCβI mRNA in primary human aortic smooth muscle cells (AoSMC); assay type: cell-based; conditions: 100 nM insulin, 4 hours
Procedure: as §2, §1

O=CC[C@@H](O)[C@H](O)[C@H](O)CO [2-DOG, 2-deoxyglucose]
effect of glucose analogs on PKCβII mRNA ([1]; 4 hours): destabilized

CO[C@@H]([C@H](O)[C@H](O)CO)[C@@H](O)C=O [3-O-Methylglucose, 3-O-methylglucose]
effect of glucose analogs on PKCβII mRNA ([1]; 4 hours): destabilized

N#C/C(=C/c1ccc(O)c(O)c1)C(=O)NCc1ccccc1 [AG-490]
PERCENT OF PKCβII mRNA POST-GLUCOSE TREATMENT [1]: 5%

CO[C@@H]1[C@H](N(C)C(=O)c2ccccc2)C[C@H]2O[C@]1(C)n1c3ccccc3c3c4c(c5c6ccccc6n2c5c31)C(=O)NC4 [CG 41251]
PERCENT OF PKCβII mRNA POST-GLUCOSE TREATMENT [1]: 100%

O=C1NC(=O)c2cc(Nc3ccc(F)cc3)c(Nc3ccc(F)cc3)cc21 [CGP53353]
glucose-stimulated rat VSMC proliferation [2]: inhibits

C[C@@H]1C[C@@H]([C@H](O)CC2CC(=O)NC(=O)C2)C(=O)[C@@H](C)C1 [Cycloheximide]
effect of inhibitor on glucose-induced destabilization of PKCβII mRNA [1]: did not block
PERCENT OF PKCβII mRNA POST-GLUCOSE TREATMENT [1]: 10%

O=C(O)CN(CCN(CC(=O)O)CC(=O)O)CC(=O)O [EDTA]
degradation of RNA by post-nuclear extract [3]: No degradation

N[C@H]1C(O)O[C@H](CO)[C@@H](O)[C@@H]1O (stereo partly shown) [Glucosamine]
effect on PKCβII mRNA ([1]; 10 mM glucosamine in the presence of 5.5 mM glucose, 4 hours): did not destabilize; also recorded: did not affect
effect on PKCβI mRNA ([4]; 10 mM glucosamine in the presence of 5.5 mM glucose): did not destabilize; also recorded: did not affect

CO[C@H]1[C@@H](OC)C[C@H](C)[C@@H](OC)C2=CC(=O)C=C(NC(=O)/C(C)=C/C=C\[C@H](OC)[C@@H](OC(N)=O)/C(C)=C/[C@@H]1C)C2=O [Herbimycin A]
effect of inhibitor on glucose-induced destabilization of PKCβII mRNA [1]: prevented
PERCENT OF PKCβII mRNA POST-GLUCOSE TREATMENT [1]: 90%

O=c1cc(N2CCOCC2)oc2c(-c3ccccc3)cccc12 [LY 294002]
PERCENT OF PKCβII mRNA POST-GLUCOSE TREATMENT [1]: 90%

C=C1[C@@H](O)[C@@H]2O[C@]3(CC[C@H](/C=C/[C@@H](C)[C@@H]4CC(C)=C[C@@]5(O[C@H](C[C@@](C)(O)C(=O)O)CC[C@H]5O)O4)O3)CC[C@H]2O[C@@H]1[C@@H](O)C[C@H](C)[C@H]1O[C@@]2(CCCCO2)CC[C@H]1C [Okadaic acid]
effect of inhibitor on glucose-induced destabilization of PKCβII mRNA [1]: interfered; also recorded: inhibited the destabilization
Ki [5]: 0.2 nM
Ki [6]: 20 nM
Ki [7]: less potent inhibitor
effect on mRNA stability in GFP reporter system [8]: mRNA stabilizing compound

COc1cccc(-c2cc(=O)c3ccccc3o2)c1N [PD 98059]
PERCENT OF PKCβII mRNA POST-GLUCOSE TREATMENT [1]: 5%

CO[C@H]1C[C@@H]2CC[C@@H](C)[C@@](O)(O2)C(=O)C(=O)N2CCCC[C@H]2C(=O)O[C@H]([C@H](C)C[C@@H]2CC[C@@H](O)[C@H](OC)C2)CC(=O)[C@H](C)/C=C(\C)[C@@H](O)[C@@H](OC)C(=O)[C@H](C)C[C@H](C)/C=C/C=C/C=C/1C [Rapamycin]
PERCENT OF PKCβII mRNA POST-GLUCOSE TREATMENT [1]: 5%

CCCCCCCCCCCCCC(=O)O[C@@H]1[C@@H](C)[C@@]2(O)[C@@H](C=C(CO)C[C@]3(O)C(=O)C(C)=C[C@@H]23)[C@@H]2C(C)(C)[C@]12OC(C)=O [TPA, 12-O-tetradecanoylphorbol-13-acetate]
increase of promoter activity in all constructs [9]: ten-fold

O=C(CO)[C@@H](O)[C@H](O)[C@H](O)CO [fructose]
destabilization of the glucose-sensing element [10]: do not destabilize

OC[C@@H](O)[C@@H](O)[C@H](O)[C@H](O)CO [mannitol]
PKCβ(I+II) mRNA levels [11]: remained unchanged
levels of PKCβII mRNA ([1]; 5.5 mM glucose+19.5 mM mannitol (osmotic control), 4 hours): did not; also recorded: remained unchanged
levels of PKCβI mRNA ([4]; 5.5 mM glucose+19.5 mM mannitol (osmotic control)): remained unchanged
destabilization of the glucose-sensing element [10]: do not destabilize

insulin: hormone that promotes glucose uptake
effect on PKCβII mRNA [12]: did not significantly affect
effect on PKCβII mRNA ([12]; listed as Insulin): did not destabilize
PKCβII mRNA diminished ([12]; 25 mM glucose+100 nM insulin): 60%
effect on PKCβI mRNA [13]: did not significantly affect
effect on PKCβI mRNA ([13]; listed as Insulin): did not destabilize

Reference: patent US8008071B2 (University of South Florida, priority 1999, dated 2011)
